Experiment: Solubility observed when preparing compounds for the cytotoxicity experiments
Type: physicochemical
Details: reason for exclusion from cytotoxicity experiments; stocks 1 mM in 100% DMSO
Description: HEK293 cells were plated at 70% density in 24-well plates at 37 °C. All compounds were first dissolved in 100% DMSO to give 1 mM as a stock for the following dilutions. […] Further, the cell viability was measured by the 3-(4,5-Dimethyl-2-thiazolyl)-2,5-diphenyl-2H-tetrazolium bromide (MTT) assay. After incubating for 1h, the reaction product was read at 570 nm using a Synergy HT microplate reader (BioTek Instruments, Winooski, VT, USA).

With `CC(C)C(=O)OC(C(=O)NC(C)(C)C)c1ccc(F)c(B(O)O)c1` (centres unmarked) [Compound 4e, (5-(2-(Tert-Butylamino)-1-(Isobutyryloxy)-2-Oxoethyl)-2-Fluorophenyl)boronic Acid] the solubility was “poor solubility”.
With `CC(C)(C)NC(=O)COC(=O)c1ccc(B(O)O)cc1` [Compound 5a, (4-((2-(Tert-Butylamino)-2-Oxoethoxy)carbonyl)phenyl)boronic Acid] the solubility was “poor solubility”.
For `CC(C)(C)NC(=O)C(OC(=O)c1ccc(B(O)O)cc1)c1ccccc1F` (centres unmarked) [Compound 5h, (4-((2-(Tert-Butylamino)-1-(2-Fluorophenyl)-2-Oxoethoxy)carbonyl)phenyl)boronic Acid], the solubility was “poor solubility”.
In the case of `CC(C)(C)NC(=O)C(OC(=O)c1ccc(B(O)O)cc1)c1ccnc2ccccc12` (centres unmarked) [Compound 5i, (4-((2-(Tert-Butylamino)-2-Oxo-1-(Quinolin-4-yl)ethoxy)carbonyl)phenyl)boronic Acid], the solubility is reported as “poor solubility”.
In the case of `CC(C)(C)NC(=O)COC(=O)c1ccc(B(O)O)c([N+](=O)[O-])c1` [Compound 5l, (4-((2-(Tert-Butylamino)-2-Oxoethoxy)carbonyl)-2-Nitrophenyl)boronic Acid], the solubility is reported as “poor solubility”.
